Data from PubChem BioAssay AID1159564 (GlaxoSmithKline (GSK), 2015).
Active and inactive are the calls of the source. How the calls were made is not given here.

System: L. donovani-infected THP-1 macrophages, intracellular amastigote imaging
Assay: intracellular L. donovani amastigote inhibition, imaging, THP-1 host macrophages, host toxicity (AID 1159564)
[1] = measured here: THP-1 host cell toxicity
[2] = measured here: amastigotes per macrophage

Row | SMILES | IC50 | IC50 [1] | IC50 [2]
1 | O=C(CN1CCN(c2ccccn2)CC1)Nc1cc(S(=O)(=O)N2CCCCCC2)ccc1Cl | 6.3 µM | 50 µM | 1.3 µM
2 | Cc1nc(N2CCC(C(=O)N3CCC(O)(c4cccnc4)CC3)CC2)nc2ccc(C(C)C)cc12 | 50 µM | 25 µM | 10 µM
3 | CCc1c(C)nc(-n2nc(C)cc2NC(=O)COc2ccccc2F)[nH]c1=O | 7.9 µM | 4 µM | 5 µM
4 | Cc1nc2c(-c3ncn[nH]3)cc(NC(=O)Cc3ccccc3)cn2c1C | 0.4 µM | 7.9 µM | 0.32 µM
5 | C[C@@H](Oc1cc(-n2cnc3cc(N)ccc32)sc1C(N)=O)c1ccccc1Cl | 32 µM | 25 µM | 20 µM
6 | O=C(CN(c1cccc(C(F)(F)F)c1)S(=O)(=O)c1ccc(Cl)cc1)NCc1ccc(F)c(F)c1 | > 50 µM (inactive) | 20 µM | > 50 µM
7 | COc1ccc(C(=O)Nc2c(C)nn(COc3cccc(C(F)(F)F)c3)c2C)cc1 | > 50 µM (inactive) | 32 µM | > 50 µM
8 | Cc1cccnc1NC(=O)c1cccc(OCc2c(C)noc2C)c1 | 20 µM | 6.3 µM | 10 µM
9 | Nc1nccc(-c2csc(Nc3ccc(Cl)cc3)n2)n1 | 1 µM | > 50 µM | 1 µM
10 | COc1ccc(NS(=O)(=O)c2ccc(S(=O)(=O)N(C)C3CCCCC3)cc2)c2ncccc12 | 0.32 µM | > 50 µM | 0.16 µM
11 | COc1ccc(Nc2nccc(N(C)c3n[nH]c4c(F)cccc34)n2)cc1S(C)(=O)=O | 2.5 µM | 10 µM | 1 µM
12 | O=C(CN(Cc1ccccn1)Cc1ccccn1)NCc1ccc(-c2csnn2)cc1 | 5 µM | > 79 µM | 5 µM
13 | COc1ccc(-c2cnc(NC(=O)c3ccc(F)cc3)n2C)cc1 | 1.3 µM | > 50 µM | 0.5 µM
14 | CNS(=O)(=O)c1ccccc1Nc1nc(Nc2cc(C)nn2C)ncc1Cl | 1 µM | 0.2 µM | 0.25 µM
15 | O=C(CN(Cc1ccccn1)Cc1ccccn1)NCc1csc(-c2cccs2)n1 | 6.3 µM | > 50 µM | 3.2 µM
16 | COc1cc(OC)cc(C(=O)N[C@@H](CC(C)C)C(=O)NC2(C#N)CC2)c1 | > 50 µM (inactive) | > 50 µM | > 50 µM
17 | O=C1CSC(c2cccnc2)N1c1ccc(Cl)cc1Cl (centres undefined) | > 50 µM (inactive) | > 50 µM | > 50 µM
18 | CCCCCNC(=O)c1c[nH]c2ccc(S(=O)(=O)N(C)c3ccc(OCC)cc3)cc2c1=O | > 50 µM (inactive) | > 50 µM | > 50 µM
19 | N#Cc1nc(C=Cc2ccccc2)oc1NCc1cccnc1 | 40 µM | 32 µM | 32 µM
20 | CN(C)S(=O)(=O)c1cccc(C(=O)Nc2nc(-c3ccccn3)cs2)c1 | 6.3 µM | 7.9 µM | 2.5 µM
21 | COc1ccnc2[nH]cc(-c3cc(C(=O)N[C@H](CO)c4ccccc4)co3)c12 | 7.9 µM | 0.79 µM | 2 µM
22 | COc1ccc(OC)c(NC(=O)c2ccc([N+](=O)[O-])o2)c1 | 32 µM | 20 µM | 16 µM
23 | N#Cc1ccc(S(=O)(=O)N2CCN(Cc3cccc(-c4ccncc4)c3)CC2)cc1 | > 50 µM (inactive) | > 50 µM | 1.3 µM

Row | SMILES | IC50 | IC50 [1] | IC50 [2]
24 | COc1ccc([N+](=O)[O-])cc1NC(=O)Nc1cccc(Cl)c1 | > 50 µM (inactive) | 50 µM | > 50 µM
25 | CCN(CC)S(=O)(=O)c1ccc(C(=O)Nc2cc(C)nn2-c2nc(C)c(C)c(=O)[nH]2)cc1 | > 50 µM (inactive) | 3.2 µM | > 50 µM
26 | CC(C)(C)Nc1nc(Nc2ccc3c(c2)CS(=O)(=O)C3)nc2[nH]ccc12 | 6.3 µM | 20 µM | 5 µM
27 | O=C(Nc1ccccc1)Nc1nc(-c2ccccn2)cs1 | 0.4 µM | 6.3 µM | 0.25 µM
28 | Cc1nn(-c2nc3ccccc3s2)c2c1C(c1ccc(OCC(N)=O)cc1)SCC(=O)N2 (centres undefined) | > 50 µM (inactive) | > 50 µM | > 50 µM
29 | COCCn1cnc2cc(NC(=O)C3CCCCC3)cc(C(=O)N3CCc4sccc4C3)c21 | > 50 µM (inactive) | > 50 µM | > 50 µM
30 | O=C1CCCCCC1(Cc1cnc[nH]1)c1ccc(Cl)cc1Cl (centres undefined) | > 50 µM (inactive) | > 50 µM | 6.3 µM
31 | Clc1ccc(OCCN2CCCCC2c2cccnc2)c(Cl)c1 (centres undefined) | > 50 µM (inactive) | > 50 µM | 5 µM
32 | CC(=O)Nc1ccc(CN2CCC(N3CC(c4ccccc4)(c4ccccc4)OCC3=O)CC2)cc1 | 25 µM | 40 µM | 20 µM
33 | Cc1cc(C)n(-c2nc(NC(C)(C)C)nc(N3CCOCC3)n2)n1 | 7.9 µM | > 50 µM | 4 µM
34 | CCn1c(-c2nonc2N)nc2c([C@@H](C)O)ncc(O[C@H](CN)c3ccccc3)c21 | 5 µM | 3.2 µM | 3.2 µM
35 | CC(C)N(C(=O)CN1C(=O)C(N)C(=O)N(c2ccccc2)c2ccccc21)c1ccccc1 (centres undefined) | > 50 µM (inactive) | > 50 µM | > 50 µM
36 | Cc1ccc2sc(NC(=O)Cn3cnc([N+](=O)[O-])n3)nc2c1 | > 50 µM (inactive) | > 50 µM | > 50 µM
37 | O=C(Cn1cnc2c(-c3ccccc3)csc2c1=O)N1CCCCC1 | > 50 µM (inactive) | > 50 µM | > 50 µM
38 | NS(=O)(=O)c1ccc(Nc2nccc(-c3cnn4ncccc34)n2)cc1 | 2 µM | 0.25 µM | 1 µM
39 | Cc1nc(-c2ccc3c(c2)OCO3)sc1C(=O)NCc1ccc2c(c1)OCO2 | 0.25 µM | > 50 µM | 0.79 µM
40 | O=C(c1cccc(Nc2ncc(-c3ccc4c(c3)OCO4)cn2)c1)N1CCSC1 | 2 µM | 13 µM | 1 µM
41 | Cn1ccnc1-c1nc(NCc2ccccc2Cl)cc(C2CC2)n1 | 0.63 µM | 7.9 µM | 0.2 µM
42 | NC(=O)c1cc(NC(=O)c2ccccc2COc2ccccc2)ccc1Cl | 3.2 µM | 16 µM | 1.6 µM
43 | CCCNC(=O)Nc1cccc(-c2nc3ncccc3o2)c1 | 13 µM | 20 µM | 16 µM
44 | Nc1nonc1-c1nc2cncc(C(=O)N3CC[C@H](N)C3)c2n1CC1CC1 | 20 µM | 13 µM | 40 µM
45 | O=S(=O)(NCC(c1cccnc1)N1CCN(c2ccc(F)cc2)CC1)c1cccs1 (centres undefined) | > 50 µM (inactive) | > 50 µM | > 50 µM
46 | O=C(NCCc1ccn(-c2ccccc2)n1)C1CCCCC1 | > 50 µM (inactive) | > 50 µM | > 50 µM

Row | SMILES | IC50 | IC50 [1] | IC50 [2]
47 | Cc1ccc(C)c(OC2CCN(C(=O)C(C)n3ccnc3)CC2)c1 (centres undefined) | > 50 µM (inactive) | > 50 µM | 0.32 µM
48 | Cc1nccn1C1CCCN(C(=O)c2cc3c(F)cccc3s2)C1 (centres undefined) | > 50 µM (inactive) | > 50 µM | > 50 µM
49 | O=C(Cc1ccccc1)Nc1ccccc1C(=O)Nc1nccs1 | > 50 µM (inactive) | > 50 µM | > 50 µM
50 | COc1cccc(CCNC(=O)C(c2cn[nH]c2)N2CCN(c3ccc(Cl)cc3)CC2)c1 (centres undefined) | 20 µM | 25 µM | 10 µM
51 | Cc1nn(-c2nc(N)nc(-c3ccccn3)n2)c(C)c1Cc1ccccc1 | 3.2 µM | > 50 µM | 2.5 µM
52 | CN(C)CCN(C)Cc1ccc(F)cc1NS(=O)(=O)c1ccc(Cl)c(Cl)c1 | 7.9 µM | 32 µM | 2.5 µM
53 | COc1ccc2ncc(=O)n(CCN3CCOC(CNCc4ccc(C(F)(F)F)cc4F)C3)c2n1 (centres undefined) | > 50 µM (inactive) | > 50 µM | > 50 µM
54 | O=C(NCCc1cccnc1)c1ccc(-c2ccccc2F)o1 | > 50 µM (inactive) | > 50 µM | > 50 µM
55 | CCCCN(C(=O)c1ccc(NC(=O)C(C)C)cc1)c1ccccc1 | 5 µM | > 50 µM | 3.2 µM
56 | Cc1[nH]nc(Nc2ccnc3[nH]ccc23)c1C | > 50 µM (inactive) | > 50 µM | > 50 µM
57 | Cc1cc(-c2cccc3ccccc23)nc2nc(N)nc(N)c12 | 5 µM | 50 µM | 1 µM
58 | COc1ccc(NS(=O)(=O)c2cc(-c3cc(C)[nH]n3)ccc2C)cc1OC | 10 µM | > 50 µM | 7.9 µM
59 | O=C(c1ccc(Cl)cc1)c1ccc(OC(=O)N2CCOCC2)cc1 | 5 µM | > 50 µM | 2 µM
60 | Cn1c(CC(=O)NNC(=O)c2ccc3ccccc3n2)nc2ccccc21 | 1.3 µM | > 50 µM | 0.79 µM
61 | Cc1nn(C)c(Cl)c1CN(Cc1cccnc1)Cc1ccsc1 | > 50 µM (inactive) | > 50 µM | 3.2 µM
62 | Cc1cn[nH]c1C1CCCN(Cc2nc3ccccc3n2C)C1 (centres undefined) | 4 µM | 20 µM | 3.2 µM
63 | CNc1nc(C)nc(N2CCc3cc(C(=O)NCc4ccc(-c5nccn5C)cc4Cl)ccc32)n1 | 0.79 µM | 25 µM | 0.79 µM
64 | O=c1ccn(-c2ccc([N+](=O)[O-])cc2Cl)c2ccc(F)cc12 | > 50 µM (inactive) | > 50 µM | > 50 µM
65 | O=C(CC1(O)C(=O)N(Cc2ccccc2)c2ccc(Br)cc21)c1cccnc1 (centres undefined) | > 50 µM (inactive) | 40 µM | 32 µM
66 | CN(C)CCOc1ccc(N2CCN(S(=O)(=O)c3ccc(Cl)cc3)CC2)cc1 | 32 µM | > 50 µM | 32 µM
67 | Cc1cc(NC(=O)C2CCCCC2)n(-c2nc3c(c(=O)[nH]2)CCC3)n1 | 5 µM | 10 µM | 3.2 µM
68 | COc1ccccc1C1CC(c2ccc(NS(C)(=O)=O)cc2)=NN1C(=O)c1cccs1 (centres undefined) | 4 µM | > 50 µM | 2.5 µM
